Experimental data reported in patent US20260365618A1 (priority 2022, published 2026).
Where “and” joins values, the source holds several entries; their conditions need not be identical. Equal entries are not always repeated. Entries after “also recorded” stand apart in the source; their conditions may differ. Where two headings read alike, the source gives them in different places.

Legend:
[1] = system: F. tularensis subsp. tularensis strain SchuS4; type: in vivo, mice
[2] = system: F. tularensis subsp. tularensis; assay: microbe, parasite or virus in culture; type: cell-based, Francisella tularensis subsp. tularensis
[3] = system: F. tularensis subsp. tularensis strain SchuS4; parameters: species or system mice; settings: mouse
[4] = system: F. tularensis subsp. novicida; type: cell-based, Francisella tularensis subsp. novicida
[5] = system: F. tularensis, total; type: cell-based, Francisella tularensis
[6] = system: F. tularensis subsp. holarctica; assay: microbe, parasite or virus in culture; type: cell-based, Francisella tularensis subsp. holarctica

SMILES | bacterial load in spleen ([1]; animals surviving until day 45 (ciprofloxacin: average of two; Lefamulin: one), spleen) | bacterial load in lung ([1]; one remaining Lefamulin-treated animal, day 45, lung) | in vitro activity (in words) [2] | MIC ([2]; Francisella tularensis, read-out: concentration at which all subsp. tularensis isolates were inhibited) | efficacy in the murine in vivo model (in words) [3] | animals surviving until day 45 ([3]; in vivo) | effect of oral treatment on survival (in words) ([3]; in vivo) | mortality 5 days after the last treatment ([3]; in vivo) | survival by the end of treatment (Day 15) ([3]; in vivo) | activity (in words) [4] | antimicrobial activity against F. tularensis (in words) [5] | in vitro activity (in words) [5] | activity / MIC values compared with subsp. tularensis (in words) [6] | activity (in words) ([4]; subsp. novicida) | MIC ([4]; subsp. novicida, N=1, CAMHB + 2% Isovitalex, 35 °C, 48 h)
C=C[C@]1(C)C[C@@H](OC(=O)CS[C@@H]2CC[C@@H](N)C[C@H]2O)[C@]2(C)[C@H](C)CC[C@]3(CCC(=O)[C@H]32)[C@@H](C)[C@@H]1O [Lefamulin, 14-O-{[(1R, 2R, 4R)-4-amino-2-hydroxy-cyclohexylsulfanyl]-acetyl}-mutilin] | 7.7×10^6 CFU/g | 1.3×10^6 CFU/g | surprisingly potent activity | ≤ 4 µg/mL | comparable efficacy | one | effective in prolonging the survival | ~100% | 100% and 90% | Potent activity | active in vitro and in vivo; also recorded: potent inhibition | potent in vitro activity | slightly higher |  | 
CC[C@H]1OC(=O)[C@H](C)[C@@H](O[C@H]2C[C@@](C)(OC)[C@@H](O)[C@H](C)O2)[C@H](C)[C@@H](O[C@@H]2O[C@H](C)C[C@H](N(C)C)[C@H]2O)[C@](C)(O)C[C@@H](C)C(=O)[C@H](C)[C@@H](O)[C@]1(C)O [Erythromycin] |  |  | slightly weaker activity |  |  |  |  |  |  |  |  |  |  | inactive | ≥8 µg/mL
